The text below walks through data of patent US5620958A, “Bradykinin antagonists” (Coretech, Inc., priority 1994, dated 1997).

Structures are written as SMILES. Peptide text beside a SMILES is read from it.

The subject of one assay is BK-induced hypotension. The assay can be described thus: BK-induced hypotension in the anesthetized rat. The format is in vivo. To be noted: intravenous infusion 9 nmol kg^-1 min^-1; BK 4×10^-9 moles; FIG. 3. On the procedure: After stopping the infusion of CP-0127, it can be seen that the responses to BK returned slowly being fully recovered after approximately 20 minutes.
Using anaesthetized rats, dose-response curves to BK were constructed and the ED50 identified (see FIG. 5a). The ED50 was then injected before and at 15 minute intervals after a single S.C. injection of CP-0127.

The target of assay [1] is T1, BK2 receptor (Oryctolagus cuniculus, UniProt Q28642).
T1 construct: when administered to an intact animal; from tissue; host or cells: whole rabbit (systemic arterial blood pressure), LPS-pretreated
T1 sequence (Q28642 1-367): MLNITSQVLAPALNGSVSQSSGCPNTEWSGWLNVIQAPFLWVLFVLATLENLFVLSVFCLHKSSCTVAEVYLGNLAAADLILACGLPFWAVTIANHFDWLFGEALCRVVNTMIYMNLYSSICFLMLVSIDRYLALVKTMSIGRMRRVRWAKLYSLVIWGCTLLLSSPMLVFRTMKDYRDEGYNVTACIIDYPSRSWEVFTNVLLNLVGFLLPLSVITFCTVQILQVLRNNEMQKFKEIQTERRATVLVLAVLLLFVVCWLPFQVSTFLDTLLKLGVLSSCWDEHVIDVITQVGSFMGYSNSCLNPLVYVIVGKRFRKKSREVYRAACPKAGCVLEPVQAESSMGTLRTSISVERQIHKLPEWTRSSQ
The assay can be described thus: blood pressure response to BK2 agonist in LPS-pretreated rabbits. The format is in vivo, rabbit. Also on record: key to OBSERVED ANTAGONIST ACTIVITY BK2: +: indicates complete blockade of the blood pressure response to the appropriate agonist; +/-: indicates partial blockade; -: indicates no observable effect at the dose indicated. The note with it: rabbits given LPS (10 μg) 20 hours before.

Assay [2] addresses T1, BK2 receptor. In words: rabbit jugular vein (RJV) in vitro, antagonism of BK. The note with it: Table A; recovery after washing. The format is cell-based.
For a further assay, the target named is T2, BK1 receptor (Oryctolagus cuniculus, UniProt P48748).
T2 construct: when administered to an intact animal; from tissue; host or cells: whole rabbit (systemic arterial blood pressure), LPS-pretreated
T2 sequence (P48748 1-352): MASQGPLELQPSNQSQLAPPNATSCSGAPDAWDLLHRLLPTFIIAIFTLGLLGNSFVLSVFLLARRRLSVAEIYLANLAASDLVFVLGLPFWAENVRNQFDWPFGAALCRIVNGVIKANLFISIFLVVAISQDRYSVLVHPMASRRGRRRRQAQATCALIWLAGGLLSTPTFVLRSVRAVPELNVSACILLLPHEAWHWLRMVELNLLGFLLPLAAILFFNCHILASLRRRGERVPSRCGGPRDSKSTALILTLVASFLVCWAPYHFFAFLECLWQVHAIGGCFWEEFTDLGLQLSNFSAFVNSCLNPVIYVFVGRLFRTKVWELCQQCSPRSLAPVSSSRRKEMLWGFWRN
In words: rabbit aorta in vitro, reversal of des-Arg^9 -BK contraction. The format is cell-based. To be noted: Table G; negative log of molar concentration causing 50% reversal of 10^-7 M des-Arg^9 -BK contraction.

The test system of assay [3] is BK-induced vascular permeability. In words: rabbit skin vascular permeability to intradermal BK (Evans Blue). The assay is classed as in vivo.

`CC(C)C[C@H](NC(=O)[C@@H](Cc1ccccc1)NC(=O)[C@H](CS)NC(=O)[C@H](Cc1ccccc1)NC(=O)CNC(=O)[C@@H]1C[C@@H](O)CN1C(=O)[C@@H]1CCCN1C(=O)[C@H](CCCNC(=N)N)NC(=O)[C@H](N)CCCNC(=N)N)C(=O)N[C@@H](CCCNC(=N)N)C(=O)O` [CP-0126] (HELM PEPTIDE1{[dR].R.P.[Hyp].G.F.C.[dF].L.R}$$$$V2.0): the “inhibition of hypotensive response to BK” value with BK-induced hypotension is given as “almost totally ineffective”. The “OBSERVED ANTAGONIST ACTIVITY BK2” value at BK2 receptor [1] (1 μg kg^-1 min^-1), on BK2 receptor [1] (3 μg kg^-1 min^-1) and on BK2 receptor [1] (10 μg kg^-1 min^-1) was “+” throughout. Besides, on BK2 receptor [2], the “RJV % REC” value was determined as 60%. The “BK1 RABBIT AORTA IC50” value at BK1 receptor is recorded as “Inactive”. For the same compound, the “inhibition of BK-induced skin vascular permeability” value was “more potent than CP-0127” in assay [3] (co-injected intradermally with BK, FIG. 2A) and “significantly less effective” in assay [3] (pre-injected 15 or 30 minutes before BK in the same site, FIGS. 2B, 2C).
